Assay results taken from patent US5126365A, “Bicyclic derivatives” (Imperial Chemical Industries PLC, priority 1989, dated 1992).

How the values were obtained:
5-LO [1] = experiment: Test b) in vitro heparinised human blood challenged with A23187, LTB4 radioimmunoassay (5-LO); assay type: cell-based; conditions: A23187 challenge
Description: b) An in vitro assay system involving incubating a test compound with heparinised human blood, prior to challenge with the calcium ionophore A23187 and then indirectly measuring the inhibitory effects on 5-LO by assaying the amount of LTB4 using the specific radioimmunoassay described by Carey and Forder (F. Carey and R. A. Forder, Brit. J. Pharmacol. 1985, 84, 34P) which involves the use of a protein-LTB4 conjugate produced using the procedure of Young et alia (Prostaglandins, 1983, 26(4), 605-613). The effects of a test compound on the enzyme cyclooxygenase (which is involved in the alternative metabolic pathway for arachidonic acid and gives rise to prostaglandins, thromboxanes and related metabolites) may be measured at the same time using the specific radioimmunoassay for thromboxane B2 (TxB2) described by Carey and Forder (see above). This test provides an indication of the effects of a test compound against 5-LO and also cyclooxygenase in the presence of blood cells and proteins. It permits the selectivity of the inhibitory effect on 5-LO or cyclooxygenase to be assessed.

5-LO [2] = experiment: Test g) liberation of LTB4 induced by zymosan within an air pouch in male rats; assay type: in vivo; conditions: oral, rat zymosan air pouch, 3 hours
Description: g) An in vivo system involving measuring the effects of a test compound administered orally against the liberation of LTB4 induced by zymosan within an air pouch generated within the subcutaneous tissue of the back of male rats. The rats are anaesthetised and air pouches are formed by the injection of sterile air (20 ml). A further injection of air (10 ml) is similarly given after 3 days. At 6 days after the initial air injection the test compound is administered (usually orally as the suspension produced when a solution of the test compound in dimethylsulphoxide is added to hydroxypropylmethylcellulose), followed by the intrapouch injection of zymosan (1 ml of a 1% suspension in physiological saline). After 3 hours the rats are killed, the air pouches are lavaged with physiological saline, and the specific radioimmunoassay described above is used to assay LTB4 in the washings. This test provides an indication of inhibitory effects against 5-LO in an inflammatory milieu.

5-LO [3] = experiment: Test c) ex vivo assay: administration of test compound, blood collection, A23187 challenge, radioimmunoassay of LTB4; assay type: in vivo; conditions: oral
Description: c) An ex vivo assay system, which is a variation of test b) above, involving administration of a test compound (usually orally as the suspension produced when a solution of the test compound in dimethylsulphoxide is added to carboxymethylcellulose), blood collection, heparinisation, challenge with A23187 and radioimmunoassay of LTB4 and TxB2. This test provides an indication of the bioavailability of a test compound as an inhibitor of 5-LO or cyclooxygenase.

COC1(c2ccc3c(c2)OC(c2ccc4ccccc4c2)O3)CCOCC1 (stereo not drawn) [5-(4-methoxytetrahydropyran-4-yl)-2-(naphth-2-yl)benzo-1,3-dioxole]
IC50 (5-LO [1]): 300 nM
ED50 (5-LO [2]): < 3 mg/kg
ED50 (5-LO [3]): 5 mg/kg
